Article PMC6222871, “Suppression of Hepatitis C Virus Genome Replication and Particle Production by a Novel Diacylglycerol Acyltransferases Inhibitor” (Molecules : A Journal of Synthetic Chemistry and Natural …, 2018)
Read-outs that look alike come from different tables or passages of the source.

Key:
Huh7.5-J6/JFH1 cells [1] = assay: immunofluorescence of dsRNA (J2 antibody) and LD (Oil-Red-O) in Huh7.5-J6/JFH1 cells; format: cell-based, hepatitis C virus; details: increasing concentrations, 72 h
Procedure: They were treated with a series of increasing concentrations of 10j for 72 h. […] Since double-stranded (ds) RNAs were regarded as a genuine marker for endogenous viral RNA synthesis due to their roles as intermediates during viral RNA replication, we wished to test effect of 10j on expression and localization of the viral dsRNAs. For this purpose, Huh7.5-J6/JFH1 cells were treated with a series of increasing concentrations of 10j for 72 h. Then, dsRNAs were visualized by using a dsRNA-specific J2 antibody. […] To study effects of 10j on localization of LDs in parallel, LDs were also co-stained in an Oil-Red-O (ORO) dye.
Immunofluorescence analysis of Huh7.5-J6/JFH1 or Huh7.5-JFH1-5A-GFP cells in the presence of 10j was conducted as previously described [35]. Fluorescence were examined and captured by Nikon confocal laser scanning microscopic system. LD content was quantified using the ImageJ program.

[2] = MTT-based cell viability assay (EZ-CYTOX); details: human
Procedure: To order to study impacts of DGAT inhibitors on HCV genome replication independently of the particle production, we decided to examine effects of these twelve DGAT inhibitors on the levels of viral RNA genome and cell viability in parallel. […] Then, we treated them with an increasing concentration of each DGAT inhibitor. Then, luciferase and MTT-based cell viability assays were performed to determine EC50 and CC50 (cytotoxic concentration required to kill 50% of treated cells) values, respectively.
Cell viability was measured with EZ-CYTOX (10% tetrazolium salt; Dogen, Gyeonggi-do, Korea) as described previously. Anti-HCV replication analysis using a luciferase assay was conducted as previously described.

Huh7.5-J6/JFH1 cells [3] = assay: immunofluorescence of NS3 and LD (BODIPY) in Huh7.5-J6/JFH1 cells; format: cell-based, hepatitis C virus; details: 72 h
Procedure: Based on previous results, we noticed that EC50 values required for inhibition of the HCV genome replication by 10j were around 1–2 μM ranges (Figure 2 and Table 3). However, IC50 value required for inhibition of the enzymatic DGAT activities in vitro by 10j was reported to be higher than 5 μM (Table 2 and Figure 6E). Based on these observations, we hypothesized that inhibition of DGATs by 10j may not play a direct role in suppression of the viral genome replication. To test this hypothesis, we decided to study effects of 10j on DGAT and the viral genome replication in a simultaneous manner. […] Then, the viral NS3 protein and LDs were visualized by using an anti-NS3 antibody and BODIPY, respectively. […] Significant reduction of LD was only seen after treatment of 10j higher than 5 μM. In order to confirm this observation, we decided to utilize another HCV-positive cell—JFH1-NS5A-GFP cells—which were infected with infectious HCV genotype 2a particles with a visually tractable NS5A due to the presence of in-frame-fused GFP protein with NS5A. TGs of these cells were stained with ORO for visualization in parallel. […] In accordance with the previous result, reduction of the NS5A-GFP protein preceded decline of TG biosynthesis (Figure 7D).
(§1) Immunofluorescence analysis of Huh7.5-J6/JFH1 or Huh7.5-JFH1-5A-GFP cells in the presence of 10j was conducted as previously described. Fluorescence were examined and captured by Nikon confocal laser scanning microscopic system. LD content was quantified using the ImageJ program.

HNF4α = HNF4α western blot in Huh7.5-J6/JFH1 cells; format: cell-based; details: up to 10 μM, 72 h
Description: Since DGATs play an important role in maintaining liver-likeness in hepatocytes, the antiviral effect of 10j might be due to mere loss of this liver-specific character. […] In addition, HNF4α was also reported to be reduced in DGAT1-silenced cell lines. Therefore, we wished to test effects of 10j on HNF4α.

HCV IRES = assay: HCV IRES-dependent translation, dual luciferase reporter in Huh7.5 cells; format: cell-based, hepatitis C virus; details: up to 10 μM
Procedure: A dual luciferase reporter plasmid, which expresses firefly and renila luciferases through cap and HCV IRES-dependent translation, was transfected into Huh7.5 cells in the presence of 10j. Dual luciferase assay was conducted as previously described.

DGAT-1 = target: T1, DGAT-1 (Homo sapiens, UniProt O75907); assay: DGAT-1 in vitro assay, membrane fractions of DGAT-1-transfected 293T cells, NBD-palmitoyl CoA, TLC; format: biochemical
T1 construct: expressed in transfected cells; host or cells: 293T cells (membrane fraction)
T1 sequence (O75907 1-488): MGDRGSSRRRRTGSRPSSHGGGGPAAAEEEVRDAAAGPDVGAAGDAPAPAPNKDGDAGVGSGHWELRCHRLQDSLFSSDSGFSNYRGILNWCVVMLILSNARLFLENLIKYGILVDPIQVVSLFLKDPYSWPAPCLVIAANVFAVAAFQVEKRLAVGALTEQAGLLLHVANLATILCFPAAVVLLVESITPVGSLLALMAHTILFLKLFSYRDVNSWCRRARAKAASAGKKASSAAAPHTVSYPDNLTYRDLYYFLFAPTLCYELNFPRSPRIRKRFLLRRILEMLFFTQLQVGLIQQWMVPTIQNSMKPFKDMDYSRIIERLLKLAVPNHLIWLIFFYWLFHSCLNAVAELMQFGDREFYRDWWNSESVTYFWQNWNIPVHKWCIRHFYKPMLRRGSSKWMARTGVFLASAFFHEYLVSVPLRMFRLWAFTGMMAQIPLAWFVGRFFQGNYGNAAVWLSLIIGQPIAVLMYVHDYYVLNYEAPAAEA
Procedure: pcDNA3.1-DGAT1 plasmid was transfected into 293T cells by using a lipofectamine 2000 transfection reagent (Invitrogen) as described by the manufacturer. At 24 h after transfection, transfected cells were harvested and cells were resuspended with 500 μL of 50 mM Tris-HCL/250 mM sucrose. Resuspended cells were disrupted by 15 passages through a 27-gauge needle and centrifugation at 600× g for 5 min. The supernatant was ultracentrifuged at […] for 30 min and the supernatant was discarded. The pellets were resuspended in a total of 500 μL of 50 mM ice-cold Tris-HCl/250 mM sucrose. Then, a master mix containing 20 μL of 1 M-Tris-HCl, 4 μL of 1 M MgCl2, 10 μL of 4 mM DOG in acetone, 10 μL of 12 mg/mL BSA and 10 μL of 500 μM NBD-palmitoyl CoA in 20 mM Tris was prepared and incubated at 37 °C for 2 min. Also, 50 μg total membrane proteins were incubated with 10j and A922500 at 37 °C for 1 h. Extracted proteins were added into master mix and incubated at 37 °C for 10 min. The reaction was terminated by adding 4 mL CHCl3/methanol (2:1, v/v). Samples were mixed by vortexing and 800 μL of water was added and remixed. Samples were allowed to sit at room temperature for 1 h. […] Plate was allowed to air dry for 1 h before quantification of reaction products. The synthesized TG was determined by the ChemiDoc imaging system (Bio-Rad, Hércules, CA, USA).

JFH1-NS5A-GFP cells = assay: NS5A-GFP and Oil Red O imaging in JFH1-NS5A-GFP cells; format: cell-based, hepatitis C virus; details: 72 h, dose-dependent
Procedure: Based on previous results, we noticed that EC50 values required for inhibition of the HCV genome replication by 10j were around 1–2 μM ranges (Figure 2 and Table 3). However, IC50 value required for inhibition of the enzymatic DGAT activities in vitro by 10j was reported to be higher than 5 μM (Table 2 and Figure 6E). Based on these observations, we hypothesized that inhibition of DGATs by 10j may not play a direct role in suppression of the viral genome replication. To test this hypothesis, we decided to study effects of 10j on DGAT and the viral genome replication in a simultaneous manner. […] Then, the viral NS3 protein and LDs were visualized by using an anti-NS3 antibody and BODIPY, respectively. […] Significant reduction of LD was only seen after treatment of 10j higher than 5 μM. In order to confirm this observation, we decided to utilize another HCV-positive cell—JFH1-NS5A-GFP cells—which were infected with infectious HCV genotype 2a particles with a visually tractable NS5A due to the presence of in-frame-fused GFP protein with NS5A. TGs of these cells were stained with ORO for visualization in parallel. […]
as §1

recombinant DGAT-2 = system: recombinant DGAT-2; design: method as in PMID 23242135; details: cited from earlier work

O=C(NCc1ccco1)c1ccc2[nH]c(COc3ccc(C45CC6CC(CC(C6)C4)C5)cc3)nc2c1 [10j, 2-{[4-(adamant-1yl)phenoxy]methyl)-N-(furan-2-ylmethyl)-1H-benzo[d]imidazole-5-carboxamide]
amount of dsRNAs (Huh7.5-J6/JFH1 cells [1]): significantly reduced | expression level of total LDs (Oil-Red-O) (Huh7.5-J6/JFH1 cells [1]): dose-dependent reduction | CC50 [2]: 38.9 µM | concentration at which the viral NS3 protein started to disappear (Huh7.5-J6/JFH1 cells [3]): 1 µM | concentration for significant reduction of LD (Huh7.5-J6/JFH1 cells [3]): higher than 5 μM | LD levels (BODIPY) (Huh7.5-J6/JFH1 cells [3]; up to 2 μM): stayed unaltered | expression levels of HNF4α (HNF4α): remained unaltered | HCV IRES-dependent translation (HCV IRES): remained unaltered | IC50 (DGAT-1; DGAT-1 membrane fractions from 293T cells, read-out: IC50, in vitro synthesis of TG by DGAT-1): 17.4 µM | IC50 (DGAT-1; Table 2 and Figure 6E, read-out: IC50 required for inhibition of the enzymatic DGAT activities in vitro (summary)): > 5 µM | concentration at which reduction of NS5A-GFP expression starts (JFH1-NS5A-GFP cells): 5 µM | IC50 (recombinant DGAT-2): 17.3 µM
